Assay results: patent publication US9862688B2, “Hydrophobically tagged janus kinase inhibitors and uses thereof” (Dana-Farber Cancer Institute, Inc., priority 2014, dated 2018)

Columns and labels:
Ba/F3 TYK2 = assay: Ba/F3 cell proliferation analysis (CellTiter-Glo), TYK2; type: cell-based, murine; settings: Mus musculus, BaF3; Ba/F3 cells, 72 hours at 37° C., cell viability
Protocol: (§1) Cell Proliferation Analysis
(§2) CellTiter-Glo® Luminescent cell viability assay (Promega) was used to assess cell survival following treatment with the compounds described herein. Cells were seeded into 384 well plates with the EL406 Combination Washer Dispenser (BioTek Instruments, Inc.), and the compounds were injected into the cells culture media with the JANUS Automated Workstation (PerkinElmer Inc.). Cells were treated with a series diluted inhibitors (20 to 0.04 μM) for 72 hours at 37° C. Luminescent measurement is performed using the 2104 Envision® Multilabel Reader (PerkinElmer Inc.). The cell lines employed include Ba/F3 (a murine interleukin-3 dependent pro-B cell line), NKL (a Natural Killer Cell Lymphoma (NKCL) cell line), CMK (an Acute Megakaryoblastic Leukemia (AMKL) cell line).

JAK3 = JAK3 (Homo sapiens (Human), UniProt P52333); assay: INVITROGEN Select Screening in vitro kinase activity assay; type: biochemical; settings: enzymatic
Sequence of JAK3 (P52333 whole entry): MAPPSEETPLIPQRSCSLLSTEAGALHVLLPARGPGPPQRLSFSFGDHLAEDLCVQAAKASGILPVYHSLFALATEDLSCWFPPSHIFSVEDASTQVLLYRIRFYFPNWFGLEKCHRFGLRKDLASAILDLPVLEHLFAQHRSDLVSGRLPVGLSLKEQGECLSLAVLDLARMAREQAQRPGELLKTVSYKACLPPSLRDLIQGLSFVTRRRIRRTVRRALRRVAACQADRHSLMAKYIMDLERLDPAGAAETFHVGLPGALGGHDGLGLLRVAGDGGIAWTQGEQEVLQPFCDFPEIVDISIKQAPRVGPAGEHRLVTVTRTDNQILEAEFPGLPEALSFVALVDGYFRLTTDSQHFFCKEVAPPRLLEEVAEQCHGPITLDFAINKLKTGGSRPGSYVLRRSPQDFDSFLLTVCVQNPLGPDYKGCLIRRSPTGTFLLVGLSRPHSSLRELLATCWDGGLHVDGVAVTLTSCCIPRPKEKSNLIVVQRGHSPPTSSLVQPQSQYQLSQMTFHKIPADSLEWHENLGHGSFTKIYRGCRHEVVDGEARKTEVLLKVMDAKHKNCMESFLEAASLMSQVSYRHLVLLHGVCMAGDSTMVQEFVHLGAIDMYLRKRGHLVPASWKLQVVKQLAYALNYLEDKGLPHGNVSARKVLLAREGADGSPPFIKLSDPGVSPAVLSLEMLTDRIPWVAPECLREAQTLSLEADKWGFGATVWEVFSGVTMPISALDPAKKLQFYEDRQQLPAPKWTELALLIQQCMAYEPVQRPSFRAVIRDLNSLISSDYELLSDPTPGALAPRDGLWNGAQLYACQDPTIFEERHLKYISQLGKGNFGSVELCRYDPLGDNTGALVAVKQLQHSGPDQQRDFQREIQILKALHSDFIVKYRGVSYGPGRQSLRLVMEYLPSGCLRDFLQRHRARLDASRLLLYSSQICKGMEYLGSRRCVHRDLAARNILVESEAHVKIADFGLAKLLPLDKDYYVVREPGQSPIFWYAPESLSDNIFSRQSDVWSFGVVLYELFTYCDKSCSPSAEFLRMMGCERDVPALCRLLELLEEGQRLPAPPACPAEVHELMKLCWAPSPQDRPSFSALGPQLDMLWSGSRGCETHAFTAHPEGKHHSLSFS
Description: The in vitro activity of the compounds described herein in inhibiting JAK3 and other kinases were obtained using an INVITROGEN Select Screening assay as known in the art.

[1] = test system: CMK (an Acute Megakaryoblastic Leukemia (AMKL) cell line); assay: Cancer cell line proliferation analysis (CellTiter-Glo), CMK; type: cell-based; settings: Homo sapiens; CMK cells, 72 hours at 37° C., cell viability; read-out: Cancer cell lines IC50 (nM) CMK
Protocol: as §1, §2

Ba/F3 JAK3 = assay: Ba/F3 cell proliferation analysis (CellTiter-Glo), JAK3; type: cell-based, murine; settings: Ba/F3 cells, 72 hours at 37° C., cell viability
Protocol: as §1, §2

[2] = test system: NKL (a Natural Killer Cell Lymphoma (NKCL) cell line); assay: Cancer cell line proliferation analysis (CellTiter-Glo), NKL; type: cell-based; settings: NKL cells, 72 hours at 37° C., cell viability, read-out: Cancer cell lines IC50 (nM) NKL
Protocol: as §1, §2

Ba/F3 JAK1 = assay: Ba/F3 cell proliferation analysis (CellTiter-Glo), JAK1; type: cell-based, murine; settings: Mus musculus, BaF3; Ba/F3 cells, 72 hours at 37° C., cell viability
Protocol: as §1, §2

Ba/F3 JAK2 = assay: Ba/F3 cell proliferation analysis (CellTiter-Glo), JAK2; type: cell-based, murine; settings: Mus musculus, BaF3; Ba/F3 cells, 72 hours at 37° C., cell viability
Protocol: as §1
as §2, with “Luminescent measurement is performed using the 2104 Envision® Multilabel Reader (PerkinElmer Inc.).” left out

Ba/F3 ABL = assay: Ba/F3 cell proliferation analysis (CellTiter-Glo), ABL; type: cell-based, murine; settings: Mus musculus, Ba/F3 cells, 72 hours at 37° C., cell viability
Protocol: as §1
as §2, with “Luminescent measurement is performed using the 2104 Envision® Multilabel Reader (PerkinElmer Inc.).” left out

Compound: C=CC(=O)Nc1cccc(CNc2nc(Nc3ccc(N4CCN(CCCNC(=O)CC5[C@H]6C[C@@H]7C[C@@H](C[C@H]5C7)C6)CC4)cc3OC)ncc2Cl)c1 (stereo partly shown) [Compound 2]
- IC50 (Ba/F3 TYK2): 1820 nM
- IC50 (JAK3): 45 nM
- IC50 [1]: 273 nM
- IC50 (Ba/F3 JAK3): 382 nM
- IC50 (Ba/F3 JAK3; listed as compound 2): 45 nM
- IC50 [2]: 193 nM

Compound: C=CC(=O)Nc1cccc(CNc2nc(Nc3ccc(N4CCN(CCCNC(=O)CC5[C@H]6C[C@@H]7C[C@@H](C[C@H]5C7)C6)CC4)cc3)ncc2Cl)c1 (stereo partly shown) [Compound 3]
- IC50 (Ba/F3 TYK2): 542 nM
- IC50 (Ba/F3 JAK1): 1120 nM
- IC50 (JAK3): 12.8 nM
- IC50 (Ba/F3 JAK2): 1220 nM
- IC50 [1]: 490 nM
- IC50 (Ba/F3 ABL; BaF3): 2260 nM
- IC50 (Ba/F3 JAK3; Mus musculus, BaF3, 72 h): 72.7 nM

Compound: C=CC(=O)Nc1cccc(CNc2nc(Nc3ccc(N4CCN(CCCCNC(=O)CC5[C@H]6C[C@@H]7C[C@@H](C[C@H]5C7)C6)CC4)cc3)ncc2Cl)c1 (stereo partly shown) [Compound 4]
- IC50 (Ba/F3 TYK2): 372 nM
- IC50 (Ba/F3 JAK1): 252 nM
- IC50 (JAK3): 7.95 nM
- IC50 [1]: 38 nM
- IC50 (Ba/F3 ABL; BaF3): 623 nM
- IC50 (Ba/F3 JAK3; Mus musculus, BaF3, 72 h): 64.8 nM

Compound: C=CC(=O)Nc1cccc(CNc2nc(Nc3cnn(CCN4CCN(C(=O)CC5[C@H]6C[C@@H]7C[C@@H](C[C@H]5C7)C6)CC4)c3)ncc2Cl)c1 (stereo partly shown) [Compound 5]
- IC50 (Ba/F3 TYK2): 676 nM
- IC50 (Ba/F3 JAK1): 1110 nM
- IC50 (JAK3): 4.9 nM
- IC50 (Ba/F3 JAK3; Mus musculus, BaF3, 72 h): 94 nM

Compound: C=CC(=O)Nc1cccc(CNc2nc(Nc3cnn(C4CCN(C(=O)CC5[C@H]6C[C@@H]7C[C@@H](C[C@H]5C7)C6)CC4)c3)ncc2Cl)c1 (stereo partly shown) [Compound 6]
- IC50 (Ba/F3 JAK1): 2080 nM
- IC50 (JAK3): 5.9 nM
- IC50 (Ba/F3 JAK2): 3180 nM
- IC50 (Ba/F3 ABL; BaF3, 72 h, heading: Ba/F3 IC50 ABL): 3860 nM
- IC50 (Ba/F3 JAK3; Mus musculus, BaF3, 72 h): 38 nM

Compound: C=CC(=O)Nc1cccc(CNc2nc(Nc3cnn(C4CCN(CCNC(=O)CC5[C@H]6C[C@@H]7C[C@@H](C[C@H]5C7)C6)CC4)c3)ncc2Cl)c1 (stereo partly shown) [Compound 7]
- IC50 (Ba/F3 TYK2): 794 nM
- IC50 (Ba/F3 JAK1): 954 nM
- IC50 (JAK3): 6.8 nM
- IC50 (Ba/F3 JAK2): 1440 nM
- IC50 (Ba/F3 ABL; BaF3): 2280 nM
- IC50 (Ba/F3 JAK3; Mus musculus, BaF3, 72 h): 105 nM
